Patent US7888380B2, “1,2,4-Triazolylaminoaryl (heteroaryl) sulfonamide derivatives” (Janssen Pharmaceutica, N.V., priority 2004, dated 2011)
Where two headings read alike, the source gives them in different places.

Legend:
CDK2:Cyclin-E = CDK2:Cyclin-E (Homo sapiens, UniProt P24941); test: CDK2 Screening Assay (33P-ATP FlashPlate); format: biochemical; conditions: 10 μM ATP; >10 or >100 = less than 50% inhibition at highest concentration tested
Procedure: A kinase reaction mixture was prepared containing 50 mM Tris-HCl pH=8, 10 mM MgCl2, 0.1 mM Na3PO4, 1 mM DTT, 10 μM ATP, 0.025 μM biotinylated histone-H1 peptide substrate and 0.2 μCuries per well ^33P-γ-ATP (2000-3000 Ci/mmol). 70 μL of the kinase reaction mixture was dispensed into the well of a streptavidin coated FlashPlate™ (Cat. # SMP103, NEN, Boston, Mass.). Then 1 μL of test compound stock in 100% DMSO was added to the wells resulting in a final concentration of 1% DMSO in the reaction with a 100 μl final reaction volume. Next, CDK2:Cyclin-E protein was diluted in 50 mM Tris-HCl pH=8.0, 0.1% BSA at a concentration of 1 ng per μL and 30 μL (30 ng enzyme per test well) was added to each well to initiate the reaction. The reaction was incubated for one hour at 30° C. At the end of the 1 h incubation, the reaction was terminated by aspirating the mixture from the plate and washing the wells twice with PBS containing 100 mM EDTA. The histone-H1 biotinylated peptide substrate became immobilized on the Flashplate™ and the incorporation of ^33P-γ-ATP was measured by reading the plate on a scintillation counter. Inhibition of the enzymatic activity of CDK2 was measured by observing a reduced amount of ^33P-γ-ATP incorporated into the immobilized peptide. […]

HER2 = target: T1, HER2 (Homo sapiens, UniProt P04626); test: HER2 Kinase Screening Assay; format: biochemical; conditions: 10 μM ATP; >10 or >100 = less than 50% inhibition at highest concentration tested
T1 construct: polyhistidine (N)
Procedure: The HER2 kinase assay was carried out as described above for the VEGF-R kinase assay except that the enzyme was replaced with a human epidermal growth factor receptor-2 (HER2) construct contains a polyhistidine tag at the N-terminus followed by 24 additional amino acids and begins at amino acid 676 (Accession #M11730) followed by the remainder of the HER2 cytoplasmic domain.
VEGF-R (vascular endothelial growth factor receptor-2) is a fusion protein containing a polyhistidine tag at the N-terminus followed by amino acids 786-1343 of the rat VEGF-R2 kinase domain (GenBank Accession #U93306). CDK1 (cyclin dependent kinase 1) was isolated from insect cells expressing both the human CDK1 catalytic subunit and its positive regulatory subunit cyclin B (New England Biolabs, Beverly, Mass., Cat. # 6020). CDK2 in complex with cyclin A is commercially available (Upstate Biotech, Lake Placid, N.Y.). The HER2 (human epidermal growth factor receptor-2) construct contains a polyhistidine tag at the N-terminus followed by 24 additional amino acids and begins at amino acid 676 followed by the remainder of the HER2 cytoplasmic domain.

[1] = tested on: HeLa cervical adenocarcinoma; test: Inhibition of cell proliferation (14C-thymidine incorporation), HeLa; format: cell-based
Procedure: (§1) The ability of a test compound to inhibit the proliferation of cell growth was determined by measuring incorporation of ^14C-labelled thymidine into newly synthesized DNA within the cells. This method was used on cell lines derived from carcinomas originating from several tissues such as HeLa cervical adenocarcinoma (American Type Culture Collection (ATCC), Virginia, Cat. #CCL-2), A375 malignant melanoma (ATCC CRL-1619), and HCT-116 colon carcinoma (CCL-247). In this way the effect of a compound on cell growth of cells with many different phenotypes can be determined. Cells were trypsinized and counted and 3000-8000 cells were added to each well of a 96-well CytoStar tissue culture treated scintillating microplate (Amersham #RPNQ0160) in complete medium in a volume of 100 μl. Cells were incubated for 24 hours in complete medium at 37° C. in an atmosphere containing 5% CO2.
(§2) Next, 1 μl of test compound in 100% DMSO was added to the wells of the plate. DMSO only was added to control wells. Cells were incubated for 24 more hours in complete medium at 37° C. in an atmosphere containing 5% CO2. Methyl ^14C-thymidine 56 mCi/mmol (NEN #NEC568 or Amersham #CFA532) was diluted in complete medium and 0.2 uCi/well was added to each well of the CytoStar plate in a volume of 20 ul. The plate was incubated for 24 hours at 37° C. plus 5% CO2 in drug plus ^14C-thymidine. The contents of the plate were discarded into a ^14C radioactive waste container by inverting the plate and the plate was washed twice with 200 μl PBS.
(§3) 200 μl of PBS was added to each well. The top of the plate was sealed with a transparent plate sealer and a white plate backing sealer (Packard #6005199) was applied to the bottom of the plate. The degree of methyl ^14C-thymidine incorporation was quantified on a Packard Top Count.

HCT-116 colon carcinoma = test: Inhibition of cell proliferation (14C-thymidine incorporation), HCT116; format: cell-based, human
Procedure: as §1, §2, §3

[2] = Standard Rat Pharmacokinetics (PK); format: in vivo; conditions: for Cmax: rat plasma; for bioavailability: plasma
Procedure: The conversion of prodrug to active form was evaluated using a standard rat PK protocol. The following procedure may be followed.
Rats were dosed intravenously (IV) at the level of 1.5-3 mg/kg and by oral gavage (PO) at the level of 10-30 mg/kg with prodrug candidate. For each study, four rats were used for IV dosing and four rats were used for PO dosing. Prodrug was typically formulated for IV dosing as a solution in 10% W/V solutol in 5% dextrose in sterile water vehicle (D5W). Prodrug was typically formulated for oral dosing as a uniform suspension in 0.5% methylcellulose vehicle. Blood samples (0.5 mL) were collected into heparinized tubes post dose via orbital sinus puncture. For IV dosing, blood samples were collected at 5, 15 and 30 mins, 1, 2, 4, 6, 8, and 24 hrs after the dosing. For PO dosing, blood samples were collected at 30 mins, 1, 2, 4, 6, 8 and 24 hrs. Blood samples were centrifuged for cell removal, and precisely 200 μL of plasma supernatant was then transferred to a clean vial, placed on dry ice, and subsequently stored in a −70° C. freezer prior to analysis. Results were calculated by WinNonlin Pro version 3.1. Plasma levels were determined and the oral and intravenous area under the concentration vs. time curve (AUC) were compared to determine the % bioavailability (% F) by the following formula: Dose(IV)*AUC(oral)/Dose (oral)*AUC(IV).

[3] = IV 3 mg/kg of prodrug, read-out: Prodrug Cmax (μM) IV
[4] = PO 30 mg/kg of prodrug, read-out: Prodrug Cmax (μM) PO
[5] = rat, IV/PO 3/30 mg/kg, Dose(IV)*AUC(oral)/Dose(oral)*AUC(IV)
[6] = rat, IV/PO 2/10 mg/kg, Dose(IV)*AUC(oral)/Dose(oral)*AUC(IV)
[7] = IV 2 mg/kg of prodrug, read-out: Prodrug Cmax (μM) IV

Compound	IC50 (CDK2:Cyclin-E) [µM]	IC50 (HER2) [µM]	IC50 [1] [µM]	IC50 (HCT-116 colon carcinoma) [µM]	Cmax [2, 3] [µM]	Cmax [2, 4] [µM]	% F [2, 5] [%]	IC50 ([1]; Homo sapiens) [µM]	IC50 (HCT-116 colon carcinoma; Homo sapiens, HCT-116) [µM]	bioavailability [2, 5] [%]	bioavailability ([2]; rat, IV/PO 1.5/15 mg/kg, Dose(IV)*AUC(oral)/Dose(oral)*AUC(IV)) [%]	Cmax ([2]; IV 1.5 mg/kg of prodrug, read-out: Prodrug Cmax (μM) IV) [µM]	bioavailability ([2]; rat, IV/PO 1.7/17 mg/kg, Dose(IV)*AUC(oral)/Dose(oral)*AUC(IV)) [%]	Cmax ([2]; IV 1.7 mg/kg of prodrug, read-out: Prodrug Cmax (μM) IV) [µM]	bioavailability [2, 6] [%]	Cmax [2, 7] [µM]	Cmax ([2]; PO 10 mg/kg of prodrug, read-out: Prodrug Cmax (μM) PO) [µM]
4-[5-amino-1-(2,6-difluoro-benzoyl)-1H-[1,2,4]triazol-3-ylamino]-N-propionyl-benzenesulfonamide [Compound 20]	0.28	≥ 10	58.8	> 10	33.5	0.02	0.34	–	–	–	–	–	–	–	–	–	–
Nc1nc(Nc2ccc(S(=O)(=O)NC(=O)CCC(=O)O)cc2)nn1C(=O)c1c(F)cccc1F [Compound 1, 4-{4-[5-amino-1-(2,6-difluoro-benzoyl)-1H-[1,2,4]triazol-3-ylamino]-benzenesulfonylamino}-4-oxo-butyric acid]	0.07	≥ 10	–	–	47	0.36	–	31.9	> 100	1	–	–	–	–	–	–	–
NCC(=O)NS(=O)(=O)c1ccc(Nc2nc(N)n(C(=O)c3c(F)cccc3F)n2)cc1 [Compound 2, N-(2-amino-acetyl)-4-[5-amino-1-(2,6-difluoro-benzoyl)-1H-[1,2,4]triazol-3-ylamino]-benzenesulfonamide]	0.12	≥ 10	–	–	–	–	–	14.9	37	–	0	11.8	–	–	–	–	–
COCCOCC(=O)NS(=O)(=O)c1ccc(Nc2nc(N)n(C(=O)c3c(F)cccc3F)n2)cc1 [Compound 3, 4-[5-amino-1-(2,6-difluoro-benzoyl)-1H-[1,2,4]triazol-3-ylamino]-N-[2-(2-methoxy-ethoxy)-acetyl]-benzenesulfonamide]	0.25	≥ 10	–	–	42.9	0.32	–	> 10	> 10	2	–	–	–	–	–	–	–
Nc1nc(Nc2ccc(S(=O)(=O)NC(=O)Cn3cnnn3)cc2)nn1C(=O)c1c(F)cccc1F [Compound 4, 4-[5-amino-1-(2,6-difluoro-benzoyl)-1H-[1,2,4]triazol-3-ylamino]-N-(2-tetrazol-1-yl-acetyl)-benzenesulfonamide]	0.43	≥ 10	–	–	23.5	–	–	> 100	> 100	0	–	–	–	–	–	–	–
CN1CCN(CCC(=O)NS(=O)(=O)c2ccc(Nc3nc(N)n(C(=O)c4c(F)cccc4F)n3)cc2)CC1 [Compound 5, 4-[5-amino-1-(2,6-difluoro-benzoyl)-1H-[1,2,4]triazol-3-ylamino]-N-[3-(4-methyl-piperazin-1-yl)-propionyl]-benzenesulfonamide]	0.27	≥ 10	–	–	–	–	–	> 100	> 10	–	–	–	0	23.2	–	–	–
CN(C)CC(=O)NS(=O)(=O)c1ccc(Nc2nc(N)n(C(=O)c3c(F)cccc3F)n2)cc1 [Compound 6, 4-[5-amino-1-(2,6-difluoro-benzoyl)-1H-[1,2,4]triazol-3-ylamino]-N-(2-dimethylamino-acetyl)-benzenesulfonamide]	0.32	≥ 10	–	–	25.2	–	–	> 10	> 10	0	–	–	–	–	–	–	–
Nc1nc(Nc2ccc(S(=O)(=O)NC(=O)CCN3CCOCC3)cc2)nn1C(=O)c1c(F)cccc1F [Compound 7, 4-[5-amino-1-(2,6-difluoro-benzoyl)-1H-[1,2,4]triazol-3-ylamino]-N-(3-morpholin-4-yl-propionyl)-benzenesulfonamide]	0.12	> 100	–	–	20.5	–	–	20.9	50.8	0	–	–	–	–	–	–	–
CCOC(=O)CCC(=O)NS(=O)(=O)c1ccc(Nc2nc(N)n(C(=O)c3c(F)cccc3F)n2)cc1 [Compound 8, 4-{4-[5-amino-1-(2,6-difluoro-benzoyl)-1H-[1,2,4]triazol-3-ylamino]-benzenesulfonylamino}-4-oxo-butyric acid ethyl ester]	0.06	1.23	–	–	72.2	0.19	–	60.2	40.1	0.17	–	–	–	–	–	–	–
COCCOCCOCC(=O)NS(=O)(=O)c1ccc(Nc2nc(N)n(C(=O)c3c(F)cccc3F)n2)cc1 [Compound 9, 4-[5-amino-1-(2,6-difluoro-benzoyl)-1H-[1,2,4]triazol-3-ylamino]-N-{2-[2-(2-methoxy-ethoxy)-ethoxy]-acetyl}-benzenesulfonamide]	0.44	> 100	–	–	–	–	–	> 10	> 100	–	–	–	–	–	0	–	–
COCCOCCOCC(=O)Nc1nc(Nc2ccc(S(N)(=O)=O)cc2)nn1C(=O)c1c(F)cccc1F [Compound 10, N-[2-(2,6-difluoro-benzoyl)-5-(4-sulfamoyl-phenylamino)-2H-[1,2,4]triazol-3-yl]-2-[2-(2-methoxy-ethoxy)-ethoxy]-acetamide]	0.3	> 100	–	–	–	–	–	> 100	> 100	–	–	–	–	–	0	67.3	–
Nc1nc(Nc2ccc(S(=O)(=O)NC(=O)CCCC(=O)O)cc2)nn1C(=O)c1c(F)cccc1F [Compound 11, 5-{4-[5-amino-1-(2,6-difluoro-benzoyl)-1H-[1,2,4]triazol-3-ylamino]-benzenesulfonylamino}-5-oxo-pentanoic acid]	1.53	> 100	–	–	–	–	–	> 100	> 100	–	–	–	–	–	0	81.8	0.346
